Patent EP0132130A2, “Aroyl benzofuran and benzothiophene acetic and propionic acids processes for their production and pharmaceutical compositions containing them” (SYNTEX (U.S.A.) INC., priority 1983, dated 1985)

How the values were obtained:
[1] = system: phenylquinone induced writhing; assay: Screening test for analgetic activity: mouse analgetic (anti-writhing) assay (method of Hendershot & Forsaith); type: in vivo; conditions: activity relative to aspirin = 1; oral by gavage, male Swiss-Webster mice, phenylquinone IP twenty minutes later
Protocol: Small animal screening tests to determine analgetic activity potential include the mouse analgetic (anti-writhing) assay according to the method of Hendershot and Forsaith, J. Pharmacol. Exp. Ther., 125:237-240, (1959).
The oral analgetic activity potential is determined utilizing the mouse analgetic (anti-writhing) assay in accordance with the method of Hendershot & Forsaith, J.Pharmacol.Exp.Ther., 125:237-240, (1959).
The test material is administered orally by gavage in an aqueous vehicle at time 0 to 18-20 gram male Swiss-Webster mice. Twenty minutes later 0.5 ml of a 0.02% solution of phenylquinone is injected IP. This solution induces writhing.
The total number of mice that writhe and the average number of writhes per mouse indicates the activity of the compound tested; the fewer writhes per mouse indicates a greater activity. Compounds of this invention show analgetic activity in this assay as illustrated in Table 2 below.

[2] = system: carrageenin induced paw inflammation; assay: Screening test for anti-inflammatory activity: carrageenin induced paw inflammation in the rat (method of Winter et al.); type: in vivo; conditions: activity relative to phenylbutazone = 1; oral by gavage at hour 0, female rats, carrageenin at hour 1, paws weighed at hour 4
Protocol: Initial small animal screening tests to determine anti-inflammatory activity potential include the carrageenin induced paw inflammation in the rat according to the method of Winter, et al., Proc. Soc. Exp. Biol. Med., 111:544-547, (1962) and the cotton pellet granuloma test in the rat according to the method of Meier, et al Experientia 6:469-471, (1950) and modifications thereof. The oral anti-inflammatory activity is determined utilizing carrageenin induced paw inflammation in the rat in accordance with the method of Winter, et al., Pro.Soc.Exp.Biol.Med., III:544-547, (1962). Female rats weighing 80-90 grams are used. The test materials are given at hour 0 orally by gavage in 1 ml of aqueous vehicle. At hour 1, 0.05 ml of a 1% solution (in 0.9% NaCl) of carrageenin is injected into the right hind paw. This injection causes inflammation of the paw. The rats are sacrificed at hour 4, at which time both hind paws are removed and weighed separately. The percent increase in paw size is calculated as follows: • Wt. of right paw - Wt of left ^paw X 100 […] The smaller the percent increase in paw size, the lesser the degree of inflammation and the greater the anti-inflammatory activity. Compounds of this invention show anti-inflammatory activity in this test as illustrated in Table 1 below.

SMILES | Analgesic Activity (Aspirin = 1) [1] | (Phenylbutazone = 1) Antiinflammatory Activity [2]
CSc1ccc(C(=O)c2cc(C(C)C(=O)O)cc3ccoc23)cc1 (racemic) [d,l 2-(7-(4-methylthiobenzoyl)benzofuran-5-yl)-propionic acid] | 25 | 15
CC(C(=O)O)c1cc(C(=O)c2ccccc2)c2occc2c1 (racemic) [d,l 2-(7-benzoylbenzofuran-5-yl)propionic acid] | 50 | 2
CC(C(=O)O)c1cc(C(=O)c2ccc(Cl)cc2)c2occc2c1 (racemic) [d.1-2-(7-(4-chlorobenzoyl)benzofuran-5-yl)-propionic acid] | 35 | 4
O=C(O)Cc1cc(C(=O)c2ccc(Cl)cc2)c2occc2c1 [7-(4-chlorobenzoyl)benzofuran-5-ylacetic acid] | 32 | 0.5
O=C(O)Cc1cc(C(=O)c2ccc(Cl)cc2)c2sccc2c1 [7-(4-chlorobenzoyl)benzothiophen-5-ylacetic acid] | 7 | 1.5
CSc1ccc(C(=O)c2cc(CC(=O)O)cc3ccoc23)cc1 [7-(4-methylthiobenzoyl)benzofuran-5-ylacetic acid] | 95 | 1.5
O=C(O)Cc1cc(C(=O)c2ccccc2)c2occc2c1 [Ar=phenyl, R1=H, X1=O, X2=O, R2=H, R3=H, 7-benzoylbenzofuran-5-ylacetic acid] | 25 | 1
